Results taken from PubChem BioAssay (NCI).
Values joined by “and” are separate entries in the source; they are usually repeats but may differ in a detail not shown here. Identical values can stand only once.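 Growth conditions: 96-well plates. Treatment: test compound, 48 hours, 5 concentrations. Analysis: linear interpolation between bracketing concentrations; unreached endpoints set to highest concentration. GI50 = concentration required for 50% inhibition of growth. The concentration for full growth arrest is given as TGI.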

Key:
Assay in all cases: growth of human tumour cells (NCI), 48 h
[1] = system: 786-0 renal
[2] = system: BT-549 breast
[3] = system: IGROV1 ovarian
[4] = system: MCF7 breast
[5] = system: MDA-MB-435
[6] = system: NCI-H226 lung
[7] = system: NCI/ADR-RES ovarian
[8] = system: OVCAR-8 ovarian
[9] = system: SNB-19 CNS
[10] = system: U251 CNS

## Nc1ccc(C#Cc2cncnc2Nc2ccc(OCc3cccc(F)c3)c(Cl)c2)cc1
[1]
  GI50: 17.4 µM
  TGI: > 25 µM
[2]
  GI50: > 21 µM
  TGI: > 25 µM
[3]
  GI50: 4.93 µM
  TGI: > 25 µM
[4]
  GI50: 11.9 µM
  TGI: > 25 µM
[5]
  GI50: > 17.6 µM
  TGI: > 25 µM
[6]
  GI50: 10.6 µM
  TGI: > 25 µM
[7]
  GI50: 12.7 µM
  TGI: > 25 µM
[8]
  GI50: 11.9 µM
  TGI: > 25 µM
[9]
  GI50: > 14.3 µM
  TGI: > 25 µM
[10]
  GI50: > 14 µM
  TGI: > 25 µM

## O=C1C=CC(=O)C1(Br)Br
[1]
  TGI: 23.8 µM
[2]
  TGI: 24.9 µM
[3]
  TGI: 13.7 µM
[4]
  TGI: 34.6 µM
[5]
  TGI: 29.8 µM
[6]
  TGI: 38.2 µM
[7]
  TGI: 68.3 µM
[8]
  TGI: 24.1 µM
[9]
  TGI: 31.8 µM
[10]
  TGI: 29.1 µM

## O=C1/C(=C/c2ccccc2)SC(=Nc2ccccc2)N1Nc1ccccc1
[1]
  GI50: 6.57 µM
  TGI: > 100 µM
[2]
  GI50: 6.51 µM
  TGI: 35.7 µM
[3]
  GI50: 12.7 µM
  TGI: > 100 µM
[4]
  GI50: 7.91 µM
  TGI: 83.5 µM
[5]
  GI50: 15.1 µM
  TGI: 48 µM
[6]
  GI50: 10.9 µM
  TGI: 30.5 µM
[7]
  GI50: 18.1 µM
  TGI: > 100 µM
[8]
  GI50: 27.3 µM
  TGI: > 100 µM
[9]
  GI50: 13.5 µM
  TGI: > 100 µM
[10]
  GI50: 12.9 µM
  TGI: > 100 µM

## C=C1C(=O)O[C@H]2[C@H]1CC/C(COC(=O)C(=O)c1c[nH]c3ccc(OC)cc13)=C\CC[C@@]1(C)O[C@@H]21
[1]
  GI50: 5.37 µM
  TGI: 9.91 µM
[2]
  GI50: 1.82 µM
  TGI: 3.53 µM
[3]
  GI50: 3.22 µM
  TGI: 7.64 µM
[4]
  GI50: 3.69 µM
  TGI: 16.9 µM
[5]
  GI50: 5.52 µM
  TGI: 10.8 µM
[6]
  GI50: 5.84 µM
  TGI: 9.99 µM
[7]
  GI50: 9.53 µM
  TGI: 29.6 µM
[8]
  GI50: 6.88 µM
  TGI: 19.4 µM
[9]
  GI50: 8.97 µM
  TGI: 19.6 µM
[10]
  GI50: 7.06 µM
  TGI: 10.8 µM

## COc1c2ccccc2c(O)c2c(=O)c(C(=O)O)cn(C)c12
[1]
  GI50: > 100 µM
  TGI: > 100 µM
[2]
  GI50: > 100 µM
  TGI: > 100 µM
[3]
  GI50: > 100 µM
  TGI: > 100 µM
[4]
  GI50: > 100 µM
  TGI: > 100 µM
[5]
  GI50: > 100 µM
  TGI: > 100 µM
[6]
  GI50: 17.4 µM
  TGI: > 100 µM
[7]
  GI50: > 100 µM
  TGI: > 100 µM
[8]
  GI50: > 100 µM
  TGI: > 100 µM
[9]
  GI50: > 100 µM
  TGI: > 100 µM
[10]
  GI50: > 100 µM
  TGI: > 100 µM

## C#CCN1CCN(C(=S)N/N=C(\C)c2ccccn2)CC1
[1]
  GI50: 0.243 µM
  TGI: 4.62 µM and 4.87 µM
[2]
  TGI: 3.29 µM and 3.25 µM
[3]
  GI50: 0.00303 µM
  TGI: 3.3 µM
[4]
  GI50: < 0.001 µM
  TGI: 2.73 µM and 2.9 µM
[5]
  TGI: 3.39 µM and 4.03 µM
[6]
  TGI: 4.66 µM
[7]
  GI50: 0.0304 µM
  TGI: 1.68 µM and 1.56 µM
[8]
  GI50: 0.0131 µM
  TGI: 3.5 µM and 3.46 µM
[9]
  GI50: 4.53 µM
  TGI: 17.2 µM
[10]
  GI50: 0.0126 µM
  TGI: 4.45 µM

## COc1cc(NN=C(c2ccc(O)cc2)c2ccc(O)cc2)c([N+](=O)[O-])cc1[N+](=O)[O-]
[1]
  GI50: 11.7 µM
  TGI: 24.8 µM
[2]
  GI50: 14 µM
  TGI: 30.2 µM
[3]
  GI50: 12.7 µM
  TGI: 32.8 µM
[4]
  GI50: 5.71 µM
  TGI: 21.9 µM
[5]
  GI50: 10.4 µM
  TGI: 22.6 µM
[6]
  GI50: 23.6 µM
  TGI: 71.6 µM
[7]
  GI50: 13.1 µM
  TGI: 51.5 µM
[8]
  GI50: 4.91 µM
  TGI: 27.5 µM
[9]
  GI50: 10.7 µM
  TGI: 23.3 µM
[10]
  GI50: 7.79 µM
  TGI: 20.6 µM

## CN(C)CCNC(=O)c1cccc2cc3ccccc3nc12
[1]
  GI50: 1.52 µM
  TGI: 8.64 µM
[2]
  GI50: 2.41 µM
  TGI: 10.8 µM
[3]
  GI50: 1.47 µM
  TGI: > 22 µM
[4]
  GI50: 0.612 µM
  TGI: 11.4 µM
[5]
  GI50: 1.86 µM
  TGI: 6.67 µM
[6]
  GI50: 0.961 µM
  TGI: 3.85 µM
[7]
  GI50: 1.55 µM
  TGI: 5.83 µM
[8]
  GI50: 0.62 µM
  TGI: 7.73 µM
[9]
  GI50: 2.21 µM
  TGI: > 21.6 µM
[10]
  GI50: 1.02 µM
  TGI: 4.91 µM

## Nc1ccn([C@H]2C[C@@H](O)[C@@H](CO)S2)c(=O)n1
[1]
  GI50: > 100 µM
  TGI: > 100 µM
[2]
  GI50: > 100 µM
  TGI: > 100 µM
[3]
  GI50: > 100 µM
  TGI: > 100 µM
[4]
  GI50: > 100 µM
  TGI: > 100 µM
[5]
  GI50: 16.9 µM
  TGI: > 100 µM
[6]
  GI50: > 100 µM
  TGI: > 100 µM
[7]
  GI50: 19.6 µM
  TGI: > 100 µM
[8]
  GI50: 11.2 µM
  TGI: > 100 µM
[9]
  GI50: > 100 µM
  TGI: > 100 µM
[10]
  GI50: > 100 µM
  TGI: > 100 µM

## CS(=O)(=O)N1CCN(Cc2cc3nc(-c4cccc5[nH]ncc45)nc(N4CCOCC4)c3s2)CC1 (tested in a mixture with another compound)
[1]
  GI50: 0.037 µM
  TGI: 0.148 µM
[2]
  GI50: 0.0316 µM
  TGI: 0.102 µM
[3]
  GI50: 0.0324 µM
  TGI: 0.188 µM
[4]
  GI50: 0.0509 µM
[5]
  GI50: 0.0425 µM
  TGI: 0.211 µM
[6]
  GI50: 0.374 µM
[7]
  GI50: 0.284 µM
[8]
  GI50: 0.154 µM
[9]
  GI50: 0.328 µM
[10]
  GI50: 0.213 µM

## Cc1ccc(S(=O)(=O)Oc2ccc3c4c(c(=O)oc3c2)CCCCC4)cc1
[1]
  GI50: > 100 µM
  TGI: > 100 µM
[2]
  GI50: 7.1 µM
  TGI: > 100 µM
[3]
  GI50: > 100 µM
  TGI: > 100 µM
[4]
  GI50: 9.16 µM
  TGI: > 100 µM
[5]
  GI50: > 100 µM
  TGI: > 100 µM
[6]
  GI50: 7.5 µM
  TGI: > 100 µM
[7]
  GI50: 6.76 µM
  TGI: > 100 µM
[8]
  GI50: > 100 µM
  TGI: > 100 µM
[9]
  GI50: > 100 µM
  TGI: > 100 µM
[10]
  GI50: > 100 µM
  TGI: > 100 µM

## COc1cc2c3c(n(CCCN4CCN(C)CC4)c(=O)c2cc1OC)-c1cc2c(cc1C3=O)OCO2
[1]
  GI50: 12.9 µM
  TGI: 25.5 µM
[2]
  GI50: 80.8 µM
  TGI: > 100 µM
[3]
  GI50: 7.05 µM
  TGI: 80.6 µM
[4]
  GI50: 8.82 µM
  TGI: 64.8 µM
[5]
  GI50: > 100 µM
  TGI: > 100 µM
[6]
  GI50: 13.9 µM
  TGI: 31 µM
[7]
  GI50: 1.55 µM
  TGI: 12.9 µM
[8]
  GI50: 18.1 µM
  TGI: 46.5 µM
[9]
  GI50: > 100 µM
  TGI: > 100 µM
[10]
  GI50: 11.4 µM
  TGI: 27.5 µM
